Data taken from patent US20250276999A1, “PEPTIDES FOR PROMOTING HAIR FOLLICLE NEOGENESIS, AND PREVENTION/MITIGATION OF UNTOWARD EFFECTS OF RADIATION TREATMENT” (Trustees of Tufts College, priority 2022, published 2025).
Read-outs that look alike come from different tables or passages of the source.

Tests used:
[1] = tested on: X-ray irradiated and wounded mice; assay: Combined injury murine model (thoracic X-ray irradiation plus wound); format: in vivo, C57BL/6 mice
From the text: The C57BL/6 strain of mice has been utilized extensively for the study of radiation-induced skin injuries. We determined that 16 Gy is the minimal dosage for the induction of radiation burns in C57BL/6 mice that are not repaired within 45 days. Sham irradiated mice without wounds were used as controls for radiation dermatitis, and treated identically as irradiated mice. Wounded mice, without radiation, were used as controls for combined injury.
Animals were irradiated in the RS2000 small animal irradiator. The RS2000 provides a cone-shaped radiation field with irradiation at 12.39-40.50 cm from the X-ray source. For dose measurements, irradiation was performed with the following settings: 160 kVp, 25 mA, 90 s irradiation time and 0.3 mm Cu beam filtration. The approximate HVL provided by the manufacturer was 0.62 mm Cu. The University of Wisconsin Medical Radiation Research Center (UW MRRC) provided eight acrylic mouse phantoms with three (1×1×1 mm) Harshaw thermoluminenscence dosimeter (TLD)-100 microcubes (ThermoElectron Corp., Oakwood Village, OH) embedded in each phantom. The cylindrical phantom had dimensions of 27 mm in diameter (D)×65 mm in length (L) and was stabilized by a cylindrical insert 15 mm (D)×27 mm (L) with a 3 mm thick stand. A custom lead shield was placed on the floor of the irradiator, with the mouse thoracic region ˜43.75 cm from the X-ray source. Dose measurements were conducted twice to account for set-up error and reproducibility. TLDs were processed at UW MRRC using a national standard with an expanded uncertainty (k=2) of 5%. The dose rate was reported for each aperture position 1-4 as an absorbed dose rate to water (ADRW, Gy/min) and the two repeated measurements were averaged.
Mice (12-14 weeks of age) were anesthetized using inhaled anesthesia (isoflurane), and the fur was clipped on the dorsal side of the thoracic region. Two days after fur clipping, mice to be used for combined injury were given acetaminophen (150 mg/kg in 0.5 ml sterile saline) by gavage. Animals were then anesthetized with injected anesthesia (150 mg/kg ketamine/18 mg/kg xylazine) and placed in Lucite jigs for exposure to 16.5 Gy thoracic irradiation in the RS2000 X-ray irradiator as previously described. For combined injury, immediately following thoracic irradiation and while still under anesthesia, the area of the skin was scrubbed with betadine or chlorhexidine, followed by cleaning with an alcohol pad. A 9/16 inch diameter punch biopsy tool was used to create a 1 cm wound in the central dorsal thoracic region, roughly in the center of the field of radiation exposure. The panniculus carnosus muscle and overlying skin will be removed. The wound will be left open to air. The size of the wound approximates 15% of the total body skin surface.
TSN6 peptide (5 μg/day in 50 μl sterile saline) or hepatocyte growth factor (HGF; 3.3 μg/day in 50 μl sterile saline) or vehicle (sterile saline, 50 μl) were injected subcutaneously on days 2, 7 and 10 post-irradiation. Injections were made caudal, adjacent to the irradiated or irradiated/wounded area.
Animals were monitored daily for 85 days post-irradiation for both radiation dermatitis and combined injury models. Radiation dermatitis was separately scored for hair loss, erythema, scale, and ulceration. Scoring for erythema, scale and ulceration were previously described: 0=none; 1=minimal; 2=mild; 3=moderate; 4=marked. Because all animals underwent fur clipping prior to irradiation and wounding, scoring for hair loss was determined as failure to regrow hair in the irradiated areas: 0=none; 1=minimal; 2=mild; 3=moderate; 4=marked. Animals were photographed for the measurement of wounds and for dermatitis scoring. […] Weight was measured as an indication of overall health.

[2] = tested on: X-ray irradiated mice; assay: Radiation dermatitis murine model (thoracic X-ray irradiation); format: in vivo, C57BL/6 mice
Procedure: Animals were irradiated in the RS2000 small animal irradiator. The RS2000 provides a cone-shaped radiation field with irradiation at 12.39-40.50 cm from the X-ray source. For dose measurements, irradiation was performed with the following settings: 160 kVp, 25 mA, 90 s irradiation time and 0.3 mm Cu beam filtration. The approximate HVL provided by the manufacturer was 0.62 mm Cu. […] A custom lead shield was placed on the floor of the irradiator, with the mouse thoracic region ˜43.75 cm from the X-ray source. Dose measurements were conducted twice to account for set-up error and reproducibility. […] The dose rate was reported for each aperture position 1-4 as an absorbed dose rate to water (ADRW, Gy/min) and the two repeated measurements were averaged.
Mice (12-14 weeks of age) were anesthetized using inhaled anesthesia (isoflurane), and the fur was clipped on the dorsal side of the thoracic region. […] Animals were then anesthetized with injected anesthesia (150 mg/kg ketamine/18 mg/kg xylazine) and placed in Lucite jigs for exposure to 16.5 Gy thoracic irradiation in the RS2000 X-ray irradiator as previously described [19].
Animals were monitored daily for 85 days post-irradiation for both radiation dermatitis and combined injury models. Radiation dermatitis was separately scored for hair loss, erythema, scale, and ulceration. Scoring for erythema, scale and ulceration were previously described: 0=none; 1=minimal; 2=mild; 3=moderate; 4=marked [19]. Because all animals underwent fur clipping prior to irradiation and wounding, scoring for hair loss was determined as failure to regrow hair in the irradiated areas: 0=none; 1=minimal; 2=mild; 3=moderate; 4=marked. Animals were photographed for the measurement of wounds and for dermatitis scoring. […] Weight was measured as an indication of overall health.

[3] = tested on: mice with CI; assay: Combined injury (CI) pilot study with active or scrambled peptide; format: in vivo, C57BL/6 mouse; conditions: s.c. near wound on days 2, 7, 10 post-irradiation; 5 mice per group (FIG. 15)
From the text: Mice were exposed to thoracic X-ray irradiation without excision wounding to induce CRI, and with an experimental excision wound within the irradiated region to induce CI. Animals were scored by researchers blinded to the treatment groups. Photographic documentation was made for each experiment. We evaluated the rate of wound healing from days 1-30 post-irradiation, and the severity of dermatitis was scored using four variable measures (erythema, scale, hair loss, and ulceration) in the mice from 14 days post-irradiation (dpi) until necropsy. Specific cellular and protein expression changes were determined using western blotting and immunohistochemistry (IHC). To evaluate the efficacy of bioactive peptides, mice with CI were treated with active peptides or scrambled peptides (negative control) by subcutaneous injection near the wound site on days 2, 7, and 10 post-irradiation. Additionally, vehicle control CI animals received saline (vehicle for the peptides) injections in the same volumes on the same days.

[4] = tested on: wound re-epithelization and closure; conditions: in vitro, previous studies; cited from earlier work
[5] = tested on: wound re-epithelization and closure; conditions: in BALB/c mice, previous studies; cited from earlier work
[6] = tested on: dermal papilla (DP) cells; assay: Cell viability assay (MTT); format: cell-based; conditions: treated for four days, in vitro
Procedure: Cell viability assay: Keratinocytes and dermal papilla cells were plated at 4000 and 2000 cells/well respectively in a 96 well plate with six replicates and cultured overnight. The media was changed and appropriate treatment-vehicle, scrambled peptide or active peptide—was added to the well. The media were changed with fresh media containing peptides 2 days after initial treatment, and the total culture period was 4 days. The cell viability was then measured using CellTiter […] Non-Radioactive Cell Proliferation Assay (MTT) (Promega Corporation). Briefly, 15 μL of dye solution was added to each well and incubated for 4 h at 37° C. and 5% CO2. Next 100 μL of stop solution was added to the mixture, incubated for an hour and absorbance was recorded at 570 nm using a plate reader.
Materials and Methods: Cultured dermal papilla (DP) cells, specialized skin fibroblasts isolated from the base of hair follicles, were treated with TSN18 for four days. Cell viability was measured using the CellTiter 96 Non-radioactive cell proliferation assay (MTT) kit. Alkaline phosphatase activity, a marker of trichogenicity was measured with the alkaline phosphatase yellow (pNPP) liquid substrate system for ELISA. […] The bandages were changed at two weeks and removed after four weeks and the grafts were monitored through 10 weeks. […]

[7] = tested on: grafted DECs; assay: Graft survival and size of TSN18-treated DECs grafted on nude mice; format: in vivo, Cr: NIH(S)-nu/nu mice
Procedure: Materials and Methods: Cultured dermal papilla (DP) cells, specialized skin fibroblasts isolated from the base of hair follicles, were treated with TSN18 for four days. Cell viability was measured using the CellTiter 96 Non-radioactive cell proliferation assay (MTT) kit. Alkaline phosphatase activity, a marker of trichogenicity was measured with the alkaline phosphatase yellow (pNPP) liquid substrate system for ELISA. A pilot study was performed to see whether incorporation of TSN18 active peptide in DECs improves graft survival or size. For the construction of DECs, human DP cells suspended in 1 mg/mL rat tail type I collagen were plated on inserts placed in six-well plates and incubated in media containing TSN18 active or scrambled peptide for 3 days. Subsequently, human neonatal foreskin keratinocytes were layered on top and the media changed to Epi medium containing TSN18 active or scrambled peptide for 2 days. […] The bandages were changed at two weeks and removed after four weeks and the grafts were monitored through 10 weeks. […] At the end of the experiment, the histological appearance of grafts was evaluated for the presence of a human stratified squamous epithelium and the presence or absence of human cells was assessed by staining for human leukocyte antigen. Graft sizes were measured by tracing the grafts and area determined using ImageJ (NIH) software.

[8] = tested on: dermal papilla cells; assay: Alkaline phosphatase activity (marker of trichogenicity) in cultured cells; format: cell-based; conditions: TSN18, treated for four days, in vitro
Procedure: Dermal papilla cells regulate hair follicle development and growth, unfortunately, maintaining dermal papilla cells inductive capacity is difficult in culture, as evident by their gradual loss of alkaline phosphatase activity in culture^3. To test if TSN peptides can increase alkaline phosphatase activity keratinocytes and dermal papilla cells were plated at 4000 and 2000 cells/well respectively in a 96 well plate with six replicates and cultured overnight. The media was changed and appropriate treatment-vehicle, scrambled peptide or active peptide—was added to the well. The media were changed with fresh media containing peptides 2 days after initial treatment, and the total culture period was 4 days, following which alkaline phosphatase activity was measured (FIG. 1). […]
Alkaline Phosphatase activity: Keratinocytes and dermal papilla cells were plated at 4000 and 2000 cells/well respectively in a 96 well plate with six replicates and cultured overnight. […] Alkaline phosphatase activity was measured according to manufacturer's instructions using Alkaline Phosphatase Yellow (pNPP) Liquid Substrate System for ELISA (Sigma Aldrich).
Materials and Methods: Cultured dermal papilla (DP) cells, specialized skin fibroblasts isolated from the base of hair follicles, were treated with TSN18 for four days. […] Graft sizes were measured by tracing the grafts and area determined using ImageJ (NIH) software.

[9] = 16.5 Gy plus wound, s.c. days 2, 7, 10, TSN6 5 μg/day, HGF 3.3 μg/day
[10] = 16.5 Gy, s.c. days 2, 7, 10 post-irradiation, TSN6 5 μg/day, HGF 3.3 μg/day, vs vehicle

| Substance | ulceration score ([1]; 16.5 Gy plus wound, HGF 3.3 μg/day s.c. days 2, 7, 10) | characteristics of radiation dermatitis (hair loss, scale, erythema, ulceration) including combined score [1, 9] | rate of wound closure / wound repair [1, 9] | adipose layer in histological sections ([1]; combined injury, 83 days post-irradiation) | ulceration score ([2]; 16.5 Gy, s.c. days 2, 7, 10 post-irradiation, HGF 3.3 μg/day, vs vehicle) | erythema score [2, 10] | hair loss score [2, 10] | radiation dermatitis (overall measures) [2, 10] | scale score [2, 10] | adipose layer in H&E histological sections ([2]; skin 83 days post-irradiation, radiation alone) | decrease of severity of aggregate radiation dermatitis scores [3] [%] | wound re-epithelization and closure [4] | wound re-epithelization and closure [5] | cell viability of DP cells [6] | average graft size ([7]; at 10 weeks, peptide 10 μM, ImageJ) [mm2] | mice that retained the graft until 10 weeks ([7]; peptide 10 μM in DECs, n=5 per group) | alkaline phosphatase activity of DP cells [8] |
| --- | --- | --- | --- | --- | --- | --- | --- | --- | --- | --- | --- | --- | --- | --- | --- | --- | --- |
| HGF: Hepatocyte growth factor, a pluripotent factor; a known adult tissue repair factor | somewhat exacerbate ulceration | did not improve any measure | did not accelerate wound repair | some improvement in the adipose layer in some animals | not markedly different | not markedly different | not markedly different | did not improve any measures | not markedly different | some improve preservation of the adipose layer |  |  |  |  |  |  |  |
| QPQPLPSPGVGGKN [TSN18, 14 aa combination of non-helical Collagen (VI) Alpha-3 chain regions] |  |  |  |  |  |  |  |  |  |  | ~50 | promoted wound re-epithelization and closure | promoted wound re-epithelization and closure | did not affect | 16.4±5.4 | four out of five | did not affect |
